Values quoted from earlier work as cited in US20220362140A1, “Novel Dental Care and Cleansing Composition” (GROUP PHARMACEUTICALS, priority 2020, published 2022).

Details: much higher concentration

O=BO[O-].[Na+] [Sodium perboarate]
Concentration that is toxic: 25%
